# Laboratory results taken from ChEMBL document CHEMBL1201862, “PubChem BioAssay data set” (2004).
#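 Assay format: 96-well plates, 48-hour exposure. Here, GI50 denotes the concentration required for 50% inhibition of growth.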 The source made the active and inactive calls. Cut-off read from the data, not from the text of the source: active = GI50 up to about 1.1 µM and inactive = higher.
# Legend:
# Experiment in all cases: NCI tumour cell line growth inhibition, 48 h
# M14 = test system: M14
# SF-268 = test system: SF-268
# SK-OV-3 = test system: SK-OV-3
# NCI-H226 = test system: NCI-H226
# Hs-578T = test system: Hs-578T
# NCI-H522 = test system: NCI-H522
# HCT-116 = test system: HCT-116
# A498 = test system: A498
# NCI-H460 = test system: NCI-H460
# RXF 393 = test system: RXF 393
# EKVX = test system: EKVX
# OVCAR-4 = test system: OVCAR-4
# CCRF-CEM = test system: CCRF-CEM
# OVCAR-3 = test system: OVCAR-3
# 786-0 = test system: 786-0
# OVCAR-8 = test system: OVCAR-8
# SK-MEL-2 = test system: SK-MEL-2
# SR = test system: SR
# UACC-62 = test system: UACC-62
# DU-145 = test system: DU-145
SMILES,GI50 (M14),GI50 (SF-268),GI50 (SK-OV-3),GI50 (NCI-H226),GI50 (Hs-578T),GI50 (NCI-H522),GI50 (HCT-116),GI50 (A498),GI50 (NCI-H460),GI50 (RXF 393),GI50 (EKVX),GI50 (OVCAR-4),GI50 (CCRF-CEM),GI50 (OVCAR-3),GI50 (786-0),GI50 (OVCAR-8),GI50 (SK-MEL-2),GI50 (SR),GI50 (UACC-62),GI50 (DU-145)
[N-]=[N+]=Nc1c(-c2ccccc2)c(Cl)nc2ccccc12,46 µM (inactive),48.1 µM (inactive),86.3 µM (inactive),22.2 µM (inactive),44.2 µM (inactive),18.1 µM (inactive),47.8 µM (inactive),27.5 µM (inactive),31.5 µM (inactive),51.6 µM (inactive),33 µM (inactive),21.9 µM (inactive),> 100 µM (inactive),44.6 µM (inactive),38 µM (inactive),58.2 µM (inactive),58.3 µM (inactive),39.5 µM (inactive),–,–
C=C1Cc2cc(OC)c(OC)c(OC)c2-c2ccc(SC)c(=O)cc21,< 0.01 µM (active),< 0.01 µM (active),< 0.01 µM (active),< 0.01 µM (active),–,< 0.01 µM (active),< 0.01 µM (active),< 0.01 µM (active),< 0.01 µM (active),< 0.01 µM (active),1.55 µM (inactive),4.26 µM (inactive),< 0.01 µM (active),< 0.01 µM (active),< 0.01 µM (active),< 0.01 µM (active),< 0.01 µM (active),< 0.01 µM (active),< 0.01 µM (active),–
COc1cc2c(cc1OC)C1=Cc3ccc(OC)c(OC)c3C(C#N)N1CC2 (stereo not given),50.2 µM (inactive),29.7 µM (inactive),> 100 µM (inactive),> 100 µM (inactive),35.8 µM (inactive),30 µM (inactive),36.1 µM (inactive),> 100 µM (inactive),31.7 µM (inactive),–,96.8 µM (inactive),67 µM (inactive),37.9 µM (inactive),34.2 µM (inactive),78.5 µM (inactive),–,19.7 µM (inactive),–,17.1 µM (inactive),39.7 µM (inactive)
CCCN1C(=O)/C(=C\c2ccc(OC)c(OC)c2)S/C1=N\c1ccccc1,> 100 µM (inactive),38.6 µM (inactive),27.9 µM (inactive),> 100 µM (inactive),44.4 µM (inactive),> 100 µM (inactive),> 100 µM (inactive),38.3 µM (inactive),> 100 µM (inactive),–,67.9 µM (inactive),> 100 µM (inactive),> 100 µM (inactive),> 100 µM (inactive),17.5 µM (inactive),> 100 µM (inactive),52.8 µM (inactive),> 100 µM (inactive),> 100 µM (inactive),–
O=C(Nc1cc2c(=O)[nH]c3ccccc3c2oc1=O)c1cnccn1,> 100 µM (inactive),–,> 100 µM (inactive),> 100 µM (inactive),–,> 100 µM (inactive),> 100 µM (inactive),–,> 100 µM (inactive),> 100 µM (inactive),> 100 µM (inactive),> 100 µM (inactive),> 100 µM (inactive),> 100 µM (inactive),> 100 µM (inactive),> 100 µM (inactive),> 100 µM (inactive),> 100 µM (inactive),> 100 µM (inactive),> 100 µM (inactive)
COc1ccc(C)cc1NC(=S)C#N,30.5 µM (inactive),27.5 µM (inactive),27.8 µM (inactive),27.5 µM (inactive),–,–,> 100 µM (inactive),> 100 µM (inactive),–,28.1 µM (inactive),–,–,71 µM (inactive),27.1 µM (inactive),> 100 µM (inactive),27.9 µM (inactive),29.2 µM (inactive),–,34.4 µM (inactive),> 100 µM (inactive)
O=P1(Oc2ccccc2)NCc2ncccc2O1 (stereo not given),> 100 µM (inactive),–,–,> 100 µM (inactive),–,–,> 100 µM (inactive),> 100 µM (inactive),> 100 µM (inactive),> 100 µM (inactive),> 100 µM (inactive),> 100 µM (inactive),> 100 µM (inactive),> 100 µM (inactive),> 100 µM (inactive),> 100 µM (inactive),> 100 µM (inactive),> 100 µM (inactive),> 100 µM (inactive),> 100 µM (inactive)
CN1CC2CN(Cc3ccccc3)CCN2c2cccnc21 (stereo not given),60.7 µM (inactive),54.3 µM (inactive),> 100 µM (inactive),57.7 µM (inactive),40.3 µM (inactive),28.8 µM (inactive),10.6 µM (inactive),95.3 µM (inactive),39.1 µM (inactive),> 100 µM (inactive),53 µM (inactive),82.6 µM (inactive),32.8 µM (inactive),41.1 µM (inactive),52.1 µM (inactive),48.2 µM (inactive),89.7 µM (inactive),25.8 µM (inactive),68.4 µM (inactive),–
CC1=CC(=O)NP(=O)(Oc2ccc(Cl)cc2)N1 (stereo not given),> 100 µM (inactive),> 100 µM (inactive),> 100 µM (inactive),> 100 µM (inactive),–,> 100 µM (inactive),> 100 µM (inactive),> 100 µM (inactive),> 100 µM (inactive),> 100 µM (inactive),> 100 µM (inactive),> 100 µM (inactive),> 100 µM (inactive),> 100 µM (inactive),> 100 µM (inactive),> 100 µM (inactive),> 100 µM (inactive),> 100 µM (inactive),> 100 µM (inactive),–
COc1ccc(-c2nc3cc(F)ccc3s2)cc1O,26.5 µM (inactive),28 µM (inactive),29.8 µM (inactive),23.8 µM (inactive),–,16.3 µM (inactive),27.4 µM (inactive),29.7 µM (inactive),21.3 µM (inactive),36.8 µM (inactive),6.59 µM (inactive),28.8 µM (inactive),4.53 µM (inactive),29.7 µM (inactive),18.9 µM (inactive),26.5 µM (inactive),27.9 µM (inactive),19.1 µM (inactive),30.7 µM (inactive),38 µM (inactive)
CC1=C(/C(C)=N/NS(=O)(=O)c2ccc(C)cc2)Sc2ccccc2N1,> 100 µM (inactive),> 100 µM (inactive),> 100 µM (inactive),> 100 µM (inactive),–,46.7 µM (inactive),> 100 µM (inactive),> 100 µM (inactive),> 100 µM (inactive),> 100 µM (inactive),68.7 µM (inactive),> 100 µM (inactive),32.9 µM (inactive),58.2 µM (inactive),> 100 µM (inactive),> 100 µM (inactive),94.2 µM (inactive),59.7 µM (inactive),32.9 µM (inactive),–
CC1C(c2ccc(F)cc2)c2cc3c(cc2OC1N1CCCC1)OCO3 (stereo not given),54.2 µM (inactive),36.8 µM (inactive),–,–,18 µM (inactive),29 µM (inactive),30.6 µM (inactive),–,–,–,34.1 µM (inactive),–,30.8 µM (inactive),43.7 µM (inactive),45.1 µM (inactive),55.1 µM (inactive),89.3 µM (inactive),35.2 µM (inactive),55 µM (inactive),61.9 µM (inactive)
Fc1cc(-c2ncc(Cl)cc2Cl)c2cccccc1-2,82.6 µM (inactive),> 100 µM (inactive),> 100 µM (inactive),> 100 µM (inactive),> 100 µM (inactive),> 100 µM (inactive),> 100 µM (inactive),–,> 100 µM (inactive),92.5 µM (inactive),> 100 µM (inactive),–,–,> 100 µM (inactive),> 100 µM (inactive),> 100 µM (inactive),–,–,> 100 µM (inactive),> 100 µM (inactive)
Oc1cc(-c2cccc(C(F)(F)F)c2)nc2cc3c(cc12)OCO3,1.76 µM (inactive),–,2.26 µM (inactive),–,1.66 µM (inactive),0.536 µM (active),–,8.87 µM (inactive),1.39 µM (inactive),–,1.5 µM (inactive),–,0.277 µM (active),–,2.05 µM (inactive),2.34 µM (inactive),1.28 µM (inactive),0.55 µM (active),1.51 µM (inactive),–
CCOc1ccc(N2C(=O)NC3(c4ccccc4)N(C)C(=O)N(C)C23c2ccccc2)cc1 (stereo not given),> 100 µM (inactive),–,> 100 µM (inactive),61 µM (inactive),–,33.9 µM (inactive),78 µM (inactive),> 100 µM (inactive),–,66.4 µM (inactive),> 100 µM (inactive),–,> 100 µM (inactive),> 100 µM (inactive),> 100 µM (inactive),61.1 µM (inactive),> 100 µM (inactive),> 100 µM (inactive),86.3 µM (inactive),> 100 µM (inactive)
Cc1cccc(C(=O)O)c1C(=O)c1cccc2ccccc12,> 100 µM (inactive),> 100 µM (inactive),> 100 µM (inactive),> 100 µM (inactive),–,> 100 µM (inactive),> 100 µM (inactive),88.3 µM (inactive),> 100 µM (inactive),> 100 µM (inactive),> 100 µM (inactive),> 100 µM (inactive),> 100 µM (inactive),> 100 µM (inactive),> 100 µM (inactive),> 100 µM (inactive),98.2 µM (inactive),> 100 µM (inactive),> 100 µM (inactive),–
Cc1cccc(/C=N/NC(=S)N2CCCC2)n1,0.133 µM (active),0.251 µM (active),–,2.41 µM (inactive),–,0.0458 µM (active),0.069 µM (active),0.347 µM (active),0.337 µM (active),–,0.304 µM (active),0.195 µM (active),< 0.01 µM (active),0.0255 µM (active),0.199 µM (active),0.324 µM (active),1.01 µM (active),0.0509 µM (active),0.296 µM (active),0.373 µM (active)
